Experimental data published in patent US12384797B2, “Thioeno[3,2-b] pyridin-7-amine compounds for treating familial dysautonomia” (PTC THERAPEUTICS, INC., priority 2019, dated 2025).

test system: Elongator complex protein 1 (ELP1, also referred to as IKBKAP); assay: IKBKAP-HTRF assay (IKBKAP protein in lysates of FD patient-derived fibroblasts); format: cell-based, human; details: 48 hours incubation, 7-point concentration curve
Procedure, shortened: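 Sandwich HTRF with two labelled anti-IKAP antibodies (overnight, 4 °C) measured IKBKAP in lysates of FD patient fibroblasts. Cells were exposed to compound for 48 h at 37 °C (7-point curve, 3.16-fold steps, triplicates). EC2x is the dose doubling IKBKAP versus DMSO control; MFI is sample ΔF divided by vehicle ΔF.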

Compound	EC2x for IKBKAP protein expression (concentration producing two times the amount of IKBKAP protein vs DMSO vehicle control)	MFI (maximum fold increase in IKBKAP protein abundance relative to the vehicle control)
C[C@H](N)Cc1sc2c(NCc3cccs3)cc(Cl)nc2c1OC(F)F [Compound 139, 2-[(2S)-2-aminopropyl]-5-chloro-3-(difluoromethoxy)-N-[(thiophen-2-yl)methyl]thieno[3,2-b]pyridin-7-amine]	***** (≤0.005 μM is indicated by five stars (*****))	**** (between >3.9 and ≤4.9 is indicated by four stars (****))
Cc1c([C@@H](C)N)sc2c(NCc3cccs3)cc(Cl)nc12 [Compound 56, 2-[(1R)-1-aminoethyl]-5-chloro-3-methyl-N-[(thiophen-2-yl)methyl]thieno[3,2-b]pyridin-7-amine]	* (An EC2x>1 μM is indicated by one star (*))	* (An MFI≤1.9 is indicated by one star (*))
N#Cc1csc2c(NCc3cccs3)cc(Cl)nc12 [Compound 13, 5-chloro-7-{[(thiophen-2-yl)methyl]amino}thieno[3,2-b]pyridine-3-carbonitrile]	–	***** (>4.9 is indicated by five stars (*****))
Clc1cc(NCc2nccs2)c2scc(Br)c2n1 [Compound 9, 3-bromo-5-chloro-N-[(1,3-thiazol-2-yl)methyl]thieno[3,2-b]pyridin-7-amine]	*** (between >0.02 μM and ≤0.5 μM is indicated by three stars (***))	***** (>4.9 is indicated by five stars (*****))
Clc1cc(NCc2ccco2)c2sccc2n1 [Compound 1, 5-chloro-N-[(furan-2-yl)methyl]thieno[3,2-b]pyridin-7-amine]	* (An EC2x>1 μM is indicated by one star (*))	*** (between >2.9 and ≤3.9 is indicated by three stars (***))
N#Cc1cc(NCc2cccs2)c2scc(Br)c2n1 [Compound 11, 3-bromo-7-{[(thiophen-2-yl)methyl]amino}thieno[3,2-b]pyridine-5-carbonitrile]	*** (between >0.02 μM and ≤0.5 μM is indicated by three stars (***))	** (between >1.9 and ≤2.9 is indicated by two stars (**))
N[C@H](CF)Cc1sc2c(NCc3nccs3)cc(Cl)nc2c1Cl [Compound 67, 2-[(2S)-2-amino-3-fluoropropyl]-3,5-dichloro-N-[(1,3-thiazol-2-yl)methyl]thieno[3,2-b]pyridin-7-amine]	* (An EC2x>1 μM is indicated by one star (*))	* (An MFI≤1.9 is indicated by one star (*))
COC[C@H](N)Cc1sc2c(NCc3ccco3)cc(Cl)nc2c1Br [Compound 44, 2-[(2R)-2-amino-3-methoxypropyl]-3-bromo-5-chloro-N-[(furan-2-yl)methyl]thieno[3,2-b]pyridin-7-amine]	***** (≤0.005 μM is indicated by five stars (*****))	***** (>4.9 is indicated by five stars (*****))
C[C@H](N)C(F)c1sc2c(NCc3cccs3)cc(Cl)nc2c1Br (stereo partly drawn) [Compound 158, 2-[(2S)-2-amino-1-fluoropropyl]-3-bromo-5-chloro-N-[(thiophen-2-yl)methyl]thieno[3,2-b]pyridin-7-amine]	***** (≤0.005 μM is indicated by five stars (*****))	***** (>4.9 is indicated by five stars (*****))
Cc1ccc(NC(=O)[C@H](N)Cc2sc3c(NCc4ccco4)cc(Cl)nc3c2C)cc1 [Compound 142, 3-(5-chloro-7-{[(furan-2-yl)methyl]amino}-3-methylthieno[3,2-b]pyridin-2-yl)-N-(4-methylphenyl)-D-alaninamide]	**** (between >0.005 μM and ≤0.02 μM is indicated by four stars (****))	***** (>4.9 is indicated by five stars (*****))
C[C@H](F)[C@H](N)Cc1sc2c(NCc3nccs3)cc(Cl)nc2c1Br [Compound 125, 2-[(2R,3S)-2-amino-3-fluorobutyl]-3-bromo-5-chloro-N-[(1,3-thiazol-2-yl)methyl]thieno[3,2-b]pyridin-7-amine]	***** (≤0.005 μM is indicated by five stars (*****))	***** (>4.9 is indicated by five stars (*****))
Cc1c(C[C@@H](N)C(=O)Nc2ccncc2)sc2c(NCc3ccco3)cc(Cl)nc12 [Compound 140, 3-(5-chloro-7-{[(furan-2-yl)methyl]amino}-3-methylthieno[3,2-b]pyridin-2-yl)-N-pyridin-4-yl-D-alaninamide]	***** (≤0.005 μM is indicated by five stars (*****))	***** (>4.9 is indicated by five stars (*****))
CC[C@H](N)Cc1sc2c(NCc3cccs3)cc(Cl)nc2c1Br [Compound 73, 2-[(2S)-2-aminobutyl]-3-bromo-5-chloro-N-[(thiophen-2-yl)methyl]thieno[3,2-b]pyridin-7-amine]	***** (≤0.005 μM is indicated by five stars (*****))	***** (>4.9 is indicated by five stars (*****))
C#C[C@H](N)Cc1sc2c(NCc3ccco3)cc(Cl)nc2c1Cl [Compound 166, 2-[(2R)-2-aminobut-3-yn-1-yl]-3,5-dichloro-N-[(furan-2-yl)methyl]thieno[3,2-b]pyridin-7-amine]	***** (≤0.005 μM is indicated by five stars (*****))	**** (between >3.9 and ≤4.9 is indicated by four stars (****))
Cc1c(NC[C@@H](C)N)sc2c(NCc3cccs3)cc(Cl)nc12 [Compound 164, N^2-[(2R)-2-aminopropyl]-5-chloro-3-methyl-N^7-[(thiophen-2-yl)methyl]thieno[3,2-b]pyridine-2,7-diamine]	*** (between >0.02 μM and ≤0.5 μM is indicated by three stars (***))	*** (between >2.9 and ≤3.9 is indicated by three stars (***))
2-[(2R)-2-amino-3-fluoropropyl]-5-chloro-3-methyl-N-[(1,3-thiazol-2-yl)methyl]thieno[3,2-b]pyridin-7-amine [Compound 69]	***** (≤0.005 μM is indicated by five stars (*****))	***** (>4.9 is indicated by five stars (*****))
Cc1c(C[C@@H](N)CF)sc2c(NCc3ccco3)cc(Cl)nc12 [Compound 81, 2-[(2R)-2-amino-3-fluoropropyl]-5-chloro-N-[(furan-2-yl)methyl]-3-methylthieno[3,2-b]pyridin-7-amine]	***** (≤0.005 μM is indicated by five stars (*****))	***** (>4.9 is indicated by five stars (*****))
CC[C@H](N)Cc1sc2c(NCc3nccs3)cc(Cl)nc2c1Br [Compound 78, 2-[(2S)-2-aminobutyl]-3-bromo-5-chloro-N-[(1,3-thiazol-2-yl)methyl]thieno[3,2-b]pyridin-7-amine]	***** (≤0.005 μM is indicated by five stars (*****))	***** (>4.9 is indicated by five stars (*****))
N[C@@H](CCF)Cc1sc2c(NCc3cccs3)cc(Cl)nc2c1Br [Compound 74, 2-[(2S)-2-amino-4-fluorobutyl]-3-bromo-5-chloro-N-[(thiophen-2-yl)methyl]thieno[3,2-b]pyridin-7-amine]	***** (≤0.005 μM is indicated by five stars (*****))	***** (>4.9 is indicated by five stars (*****))
C[C@H](N)Cc1sc2c(NCc3cccs3)cc(C#N)nc2c1Br [Compound 101, 2-[(2S)-2-aminopropyl]-3-bromo-7-{[(thiophen-2-yl)methyl]amino}thieno[3,2-b]pyridine-5-carbonitrile]	***** (≤0.005 μM is indicated by five stars (*****))	***** (>4.9 is indicated by five stars (*****))
N#Cc1cc(NCc2ccco2)c2scc(C#N)c2n1 [Compound 15, 7-{[(furan-2-yl)methyl]amino}thieno[3,2-b]pyridine-3,5-dicarbonitrile]	* (An EC2x>1 μM is indicated by one star (*))	* (An MFI≤1.9 is indicated by one star (*))
CNCc1sc2c(NCc3ccco3)cc(Cl)nc2c1C [Compound 27, 5-chloro-N-[(furan-2-yl)methyl]-3-methyl-2-[(methylamino)methyl]thieno[3,2-b]pyridin-7-amine]	*** (between >0.02 μM and ≤0.5 μM is indicated by three stars (***))	**** (between >3.9 and ≤4.9 is indicated by four stars (****))
